Reference: article PMC6270409, “Synthesis and Anti-Influenza Virus Activities of a Novel Class of Gastrodin Derivatives” (Molecules, 2013)
Where two headings read alike, the source gives them in different places. Marks after values point to notes of the source that are not given here.

How the values were obtained:
[1] = test system: influenza virus M2 protein expression; assay type: cell-based, influenza virus A/Wuhan/359/95
[2] = test system: MDCK cells; test: Cytotoxicity assay in MDCK cells monitored by CPE; conditions: 48 h, Table 1
[3] = test system: influenza A/FM/1/47(H1N1); test: microbe, parasite or virus in culture; assay type: cell-based, influenza A virus
[4] = test system: influenza A/Hanfang/359/95(H3N2); test: microbe, parasite or virus in culture; assay type: cell-based, influenza A virus
[5] = test system: influenza B (B/Jifang/13/97); test: Anti-influenza CPE assay in MDCK cells, oseltamivir-null B/Jifang/13/97; assay type: cell-based; conditions: Influenza B virus, read-out: IC50 B/Jifang/13/97
[6] = test system: influenza A/FM/1/47-MA (H1N1) virus; assay type: in vivo, mice; conditions: for numbers of surviving animals: survivors/total; for Mean lung score / Lung consolidation: day 6 post-virus exposure; for Lung consolidation: score 0-4; for Mean day to death: b.i.d x 7, mean survival time of mice dying on or before day 14
[7] = test system: neuraminidase of the two influenza virus A strain; test: Neuraminidase inhibition assay (MUNANA), two influenza A strains; assay type: biochemical; conditions: MUNANA substrate
[8] = test system: viral hemagglutinin; test: Hemagglutination inhibition assay; assay type: biochemical, influenza virus; conditions: 2 fold serial diluted from 40 μg/mL, chicken erythrocytes

| Compound | IC50 ([3]; Influenza A virus, H1N1, MDCK) | IC50 ([4]; Influenza A virus, H3N2, MDCK) | IC50 [5] | melting point | other results |
| --- | --- | --- | --- | --- | --- |
| NC12CC3CC(CC(C3)C1)C2 [Amantadine] | – | – | – | – | effect on influenza virus M2 protein expression [1]: significantly inhibited |
| COC(=O)c1ccc(F)c(O)c1 [Compound 1, Methyl 4-fluoro-3-hydroxybenzoate] | > 392 µM | > 1180 µM | – | – | TC50 [2]: >1175.50 µM; IC50 A/FM/1/47 [3]: no activity; IC50 A/Hanfang/359/95 [4]: no activity |
| COC(=O)c1ccc(F)c(O[C@@H]2O[C@H](COC(C)=O)[C@@H](OC(C)=O)[C@H](OC(C)=O)[C@H]2OC(C)=O)c1 [Compound 1a, Methyl 4-fluoro-3-((2S,3R,4S,5R,6R)-3,4,5-triacetoxy-6-(acetoxymethyl)-tetrahydro-2H-pyran-2-yloxy)benzoate] | 34.4 µM | 44.4 µM | 33 µM | – | numbers of surviving animals ([6]; 40 mg/kg/day intragastrically): 1/10; Mean lung score ([6]; 40 mg/kg/day po): 2.61 ± 0.85; Lung consolidation ([6]; 40 mg/kg/day po): 3.56; numbers of surviving animals ([6]; 80 mg/kg/day intragastrically): 6/10; Mean day to death ([6]; 80 mg/kg/day po): 11.3 days; Mean lung score ([6]; 80 mg/kg/day po): 1.82 ± 0.82; Lung consolidation ([6]; 80 mg/kg/day po): 2.25; IC50 on neuraminidase [7]: > 40 µg/mL; inhibitory effect on hemagglutination [8]: did not show an inhibitory effect; IC50 [3]: 34.5 µM; effect on influenza virus M2 protein expression ([1]; MDCK cells infected with A/Wuhan/359/95, 300TCID50, 24 hours post infection): no effect |
| COC(=O)c1ccc(F)c(O[C@@H]2O[C@H](COC(C)=O)[C@H](OC(C)=O)[C@H](OC(C)=O)[C@H]2OC(C)=O)c1 [Compound 1b, Methyl 4-fluoro-3-((2S,3R,4S,5S,6R)-3,4,5-triacetoxy-6-(acetoxymethyl)-tetrahydro-2H-pyran-2-yloxy)benzoate] | > 133 µM | 92.4 µM | – | – | – |
| COC(=O)c1c(OC)cc(O[C@@H]2O[C@H](COC(C)=O)[C@@H](OC(C)=O)[C@H](OC(C)=O)[C@H]2OC(C)=O)cc1OC [Compound 2a, Methyl 2,6-dimethoxy-4-((2S,3R,4S,5R,6R)-3,4,5-triacetoxy-6-(acetoxymethyl)-tetrahydro-2H-pyran-2-yloxy)benzoate] | 11.6 µM | > 13.7 µM | 6.25 µM | 121 to 123 °C | – |
| COC(=O)c1ccc(N)c(O[C@@H]2O[C@H](COC(C)=O)[C@@H](OC(C)=O)[C@H](OC(C)=O)[C@H]2OC(C)=O)c1 [Compound 4a, Methyl 4-amino-3-((2S,3R,4S,5R,6R)-3,4,5-triacetoxy-6-(acetoxymethyl)-tetrahydro-2H-pyran-2-yloxy)benzoate] | 119 µM | > 134 µM | – | 126 to 128 °C | – |
| COC(=O)c1cccc(O[C@@H]2O[C@H](COC(C)=O)[C@H](OC(C)=O)[C@H](OC(C)=O)[C@H]2OC(C)=O)c1 [Compound 6b, Methyl 3-((2S,3R,4S,5S,6R)-3,4,5-triacetoxy-6-(acetoxymethyl)-tetrahydro-2H-pyran-2-yloxy)benzoate] | > 138 µM | > 138 µM | – | 154 to 156 °C | – |
| COC(=O)c1ccc(O[C@@H]2O[C@H](COC(C)=O)[C@@H](OC(C)=O)[C@H](OC(C)=O)[C@H]2OC(C)=O)c(F)c1 [Compound 7a, Methyl 3-fluoro-4-((2S,3R,4S,5R,6R)-3,4,5-triacetoxy-6-(acetoxymethyl)-tetrahydro-2H-pyran-2-yloxy)benzoate] | > 133 µM | 103 µM | – | 121 to 123 °C | – |
| COC(=O)c1ccc(O[C@@H]2O[C@H](COC(C)=O)[C@H](OC(C)=O)[C@H](OC(C)=O)[C@H]2OC(C)=O)c(F)c1 [Compound 7b, Methyl 3-fluoro-4-((2S,3R,4S,5S,6R)-3,4,5-triacetoxy-6-(acetoxymethyl)-tetrahydro-2H-pyran-2-yloxy)benzoate] | 133 µM | > 133 µM | – | 121 to 123 °C | – |
| COC(=O)c1ccc(F)cc1O[C@@H]1O[C@H](COC(C)=O)[C@H](OC(C)=O)[C@H](OC(C)=O)[C@H]1OC(C)=O [Compound 8b, Methyl 4-fluoro-2-((2S,3R,4S,5S,6R)-3,4,5-triacetoxy-6-(acetoxymethyl)-tetrahydro-2H-pyran-2-yloxy)benzoate] | > 400 µM | > 400 µM | – | 136 to 138 °C | TC50 [2]: >399.66 µM |
| COC(=O)c1c(F)cccc1O[C@@H]1O[C@H](COC(C)=O)[C@@H](OC(C)=O)[C@H](OC(C)=O)[C@H]1OC(C)=O [Compound 9a, Methyl 2-fluoro-6-((2S,3R,4S,5R,6R)-3,4,5-triacetoxy-6-(acetoxymethyl)-tetrahydro-2H-pyran-2-yloxy)benzoate] | 34.5 µM | > 44.4 µM | > 44.4 µM | 130 to 132 °C | – |
| COC(=O)c1c(F)cccc1O[C@@H]1O[C@H](COC(C)=O)[C@H](OC(C)=O)[C@H](OC(C)=O)[C@H]1OC(C)=O [Compound 9b, Methyl 2-fluoro-6-((2S,3R,4S,5S,6R)-3,4,5-triacetoxy-6-(acetoxymethyl)-tetrahydro-2H-pyran-2-yloxy)benzoate] | 66.6 µM | > 133 µM | > 133 µM | 130 to 132 °C | – |
| CC(=O)OC[C@H]1O[C@@H](Oc2cccc(F)c2C)[C@H](OC(C)=O)[C@@H](OC(C)=O)[C@@H]1OC(C)=O [Compound 10a, (2R,3R,4S,5R,6S)-2-(Acetoxymethyl)-6-(3-fluoro-2-methylphenoxy)-tetrahydro-2H-pyran-3,4,5-triyl triacetate] | > 146 µM | > 146 µM | – | 127 to 129 °C | – |
| CC(=O)OC[C@H]1O[C@@H](Oc2cccc(F)c2C)[C@H](OC(C)=O)[C@@H](OC(C)=O)[C@H]1OC(C)=O [Compound 10b, (2R,3S,4S,5R,6S)-2-(Acetoxymethyl)-6-(3-fluoro-2-methylphenoxy)-tetrahydro-2H-pyran-3,4,5-triyl triacetate] | > 52.2 µM | 48.7 µM | 39.4 µM | 127 to 129 °C | – |
| CC(=O)OC[C@H]1O[C@@H](Oc2ccncc2)[C@H](OC(C)=O)[C@@H](OC(C)=O)[C@@H]1OC(C)=O [Compound 11a, (2R,3R,4S,5R,6S)-2-(Acetoxymethyl)-6-(pyridin-4-yloxy)-tetrahydro-2H-pyran-3,4,5-triyl triacetate] | 52.2 µM | 40.5 µM | > 52.2 µM | 132 to 134 °C | – |
| CC(=O)OC[C@H]1O[C@@H](Oc2ncccc2F)[C@H](OC(C)=O)[C@@H](OC(C)=O)[C@@H]1OC(C)=O [Compound 12a, (2R,3R,4S,5R,6S)-2-(Acetoxymethyl)-6-(3-fluoropyridin-2-yloxy)-tetrahydro-2H-pyran-3,4,5-triyl triacetate] | 25.2 µM | > 50.1 µM | > 50.1 µM | 140 to 142 °C | – |
| CC(=O)OCc1ccc(F)c(O[C@@H]2O[C@H](COC(C)=O)[C@@H](OC(C)=O)[C@H](OC(C)=O)[C@H]2OC(C)=O)c1 [Compound 13a, (2R,3R,4S,5R,6S)-2-(Acetoxymethyl)-6-(5-(acetoxymethyl)-2-fluorophenoxy)-tetrahydro-2H-pyran-3,4,5-triyl triacetate] | > 130 µM | > 130 µM | – | – | – |
| OCc1ccc(F)c(O[C@@H]2O[C@H](CO)[C@@H](O)[C@H](O)[C@H]2O)c1 [Compound 14a, (2S,3R,4S,5S,6R)-2-(2-Fluoro-5-(hydroxymethyl)phenoxy)-6-(hydroxymethyl)-tetrahydro-2H-pyran-3,4,5-triol] | > 657 µM | > 657 µM | – | – | TC50 [2]: >657.31 µM |
| OCc1ccc(O[C@@H]2O[C@H](CO)[C@@H](O)[C@H](O)[C@H]2O)cc1 [Gastrodin] | > 232 µM | 161 µM | – | – | TC50 [2]: >698.62 µM |
| CCOC(=O)C1=C[C@@H](OC(CC)CC)[C@H](NC(C)=O)[C@@H](N)C1 [Oseltamivir, reference compound] | 57.5 µM | 2.08 µM | > 100 µM | – | effect on influenza virus M2 protein expression [1]: has inhibitory effect |
| NC(=O)c1ncn([C@@H]2O[C@H](CO)[C@@H](O)[C@H]2O)n1 [Ribavirin, reference compound] | 13.5 µM | 11.9 µM | 11.4 µM | – | Mean day to death ([6]; 100 mg/kg/day po): 14.0 * days; Mean lung score ([6]; 100 mg/kg/day po): 1.31 ± 0.34; Lung consolidation ([6]; 100 mg/kg/day po): 0.50 *; % Survivors ([6]; mouse, in vivo): 100 (10/10) %; effect on influenza virus M2 protein expression [1]: significant inhibitory effect; influenza virus induced cytopathic effect ([4]; 10 μg/mL, strain not given): completely inhibits |
| Ethyl 3,5-dichloro-4-((2S,3R,4S,5R,6R)-3,4,5-triacetoxy-6-(acetoxymethyl)-tetrahydro-2H-pyran-2-yloxy)benzoate [Compound 3a] | – | – | – | – | TC50 [2]: >362.77 µM; IC50 [3]: > 363 µM; IC50 [4]: > 363 µM |
| Ethyl 4-fluoro-2-((2S,3R,4S,5R,6R)-3,4,5-triacetoxy-6-(acetoxymethyl)-tetrahydro-2H-pyran-2-yloxy)-benzoate [Compound 8a] | – | – | – | – | TC50 [2]: 277.10 µM; IC50 [3]: 83.7 µM; IC50 [4]: 44.4 µM |
| Methyl 4-((2S,3R,4S,5R,6R)-3,4,5-triacetoxy-6-(acetoxymethyl)-tetrahydro-2H-pyran-2-yloxy)benzoate [Compound 5a] | – | – | – | – | TC50 [2]: 232.53 µM; IC50 [3]: > 134 µM; IC50 [4]: 93.6 µM |
